Assay results: publication PMC7486275 (Nature, 2020)
Where two headings read alike, the source gives them in different places. Peptide text beside a SMILES is read from it. * marks the point of attachment. Cbz = O=C(OCc1ccccc1)*

Columns and labels:
CDK12-cycK and DDB1 = CDK12-cycK and DDB1 (Homo sapiens, UniProt Q16531+Q9NYV4, K965R); experiment: TR-FRET titration of CDK12-Alexa488cycK to terbiumDDB1; details: vs basal binding in DMSO
[1] = molecular target: CDK12-cycK complex by RBX1N8CUL4-DDB1 (Homo sapiens, UniProt Q16531+Q9NYV4, K965R); experiment: In vitro ubiquitination assay; format: biochemical; details: 2 μM compound
Sequence of CDK12-cycK complex by RBX1N8CUL4-DDB1 (Q15843 1-76): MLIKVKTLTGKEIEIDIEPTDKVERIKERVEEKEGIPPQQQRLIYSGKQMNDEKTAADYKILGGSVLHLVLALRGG
Sequence of CDK12-cycK complex by RBX1N8CUL4-DDB1 (Q16531 whole entry): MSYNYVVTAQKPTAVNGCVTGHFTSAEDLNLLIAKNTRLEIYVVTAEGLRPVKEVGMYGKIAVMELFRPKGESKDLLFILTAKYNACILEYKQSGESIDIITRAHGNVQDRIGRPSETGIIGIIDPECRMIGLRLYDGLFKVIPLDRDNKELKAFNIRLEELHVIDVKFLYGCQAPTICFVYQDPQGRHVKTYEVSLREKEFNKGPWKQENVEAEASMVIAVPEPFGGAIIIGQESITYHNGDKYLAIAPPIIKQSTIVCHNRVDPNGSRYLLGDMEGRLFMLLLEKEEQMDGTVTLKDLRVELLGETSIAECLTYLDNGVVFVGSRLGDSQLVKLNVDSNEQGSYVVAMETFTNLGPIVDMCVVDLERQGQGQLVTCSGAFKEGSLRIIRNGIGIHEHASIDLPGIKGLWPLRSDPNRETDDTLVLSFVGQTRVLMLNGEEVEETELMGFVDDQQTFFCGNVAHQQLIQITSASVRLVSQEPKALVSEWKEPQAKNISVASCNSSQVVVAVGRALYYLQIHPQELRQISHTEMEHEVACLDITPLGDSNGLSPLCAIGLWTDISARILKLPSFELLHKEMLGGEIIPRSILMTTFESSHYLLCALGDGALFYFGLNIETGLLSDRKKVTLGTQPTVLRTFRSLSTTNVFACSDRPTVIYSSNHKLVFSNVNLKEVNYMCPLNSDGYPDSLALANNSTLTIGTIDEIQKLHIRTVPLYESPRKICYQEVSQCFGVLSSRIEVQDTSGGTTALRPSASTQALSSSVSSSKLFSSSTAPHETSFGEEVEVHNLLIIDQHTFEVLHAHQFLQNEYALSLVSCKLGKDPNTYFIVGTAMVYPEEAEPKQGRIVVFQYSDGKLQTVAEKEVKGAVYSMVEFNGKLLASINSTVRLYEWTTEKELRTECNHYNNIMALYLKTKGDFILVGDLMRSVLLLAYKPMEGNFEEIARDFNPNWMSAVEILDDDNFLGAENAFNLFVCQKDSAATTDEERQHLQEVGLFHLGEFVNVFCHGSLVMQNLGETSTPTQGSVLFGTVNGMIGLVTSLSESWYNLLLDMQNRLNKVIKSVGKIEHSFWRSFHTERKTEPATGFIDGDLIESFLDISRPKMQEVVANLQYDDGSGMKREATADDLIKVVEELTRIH
Sequence of CDK12-cycK complex by RBX1N8CUL4-DDB1 (Q9NYV4 713-1052 K965R): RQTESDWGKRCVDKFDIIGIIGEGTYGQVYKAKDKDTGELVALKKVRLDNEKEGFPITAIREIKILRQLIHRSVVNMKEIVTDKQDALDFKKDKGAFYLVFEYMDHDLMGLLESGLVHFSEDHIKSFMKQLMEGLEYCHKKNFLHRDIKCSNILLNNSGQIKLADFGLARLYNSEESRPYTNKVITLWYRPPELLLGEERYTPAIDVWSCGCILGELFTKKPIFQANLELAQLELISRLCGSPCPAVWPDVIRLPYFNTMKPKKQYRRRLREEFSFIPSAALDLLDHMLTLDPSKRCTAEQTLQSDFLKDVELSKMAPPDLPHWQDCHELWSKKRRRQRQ
Sequence of CDK12-cycK complex by RBX1N8CUL4-DDB1 (P62877 whole entry, further chain): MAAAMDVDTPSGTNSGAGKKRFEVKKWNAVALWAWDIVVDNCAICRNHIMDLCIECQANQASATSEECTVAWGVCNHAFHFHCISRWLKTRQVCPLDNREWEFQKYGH
Sequence of CDK12-cycK complex by RBX1N8CUL4-DDB1 (O75909 1-267, further chain): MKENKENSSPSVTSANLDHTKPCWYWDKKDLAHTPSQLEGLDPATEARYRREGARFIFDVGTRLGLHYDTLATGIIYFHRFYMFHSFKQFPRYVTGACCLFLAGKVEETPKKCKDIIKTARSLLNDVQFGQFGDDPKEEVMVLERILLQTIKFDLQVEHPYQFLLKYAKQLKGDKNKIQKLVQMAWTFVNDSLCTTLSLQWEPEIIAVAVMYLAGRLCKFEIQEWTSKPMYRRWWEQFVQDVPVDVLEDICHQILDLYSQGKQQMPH
Sequence of CDK12-cycK complex by RBX1N8CUL4-DDB1 (Q13619 whole entry, further chain): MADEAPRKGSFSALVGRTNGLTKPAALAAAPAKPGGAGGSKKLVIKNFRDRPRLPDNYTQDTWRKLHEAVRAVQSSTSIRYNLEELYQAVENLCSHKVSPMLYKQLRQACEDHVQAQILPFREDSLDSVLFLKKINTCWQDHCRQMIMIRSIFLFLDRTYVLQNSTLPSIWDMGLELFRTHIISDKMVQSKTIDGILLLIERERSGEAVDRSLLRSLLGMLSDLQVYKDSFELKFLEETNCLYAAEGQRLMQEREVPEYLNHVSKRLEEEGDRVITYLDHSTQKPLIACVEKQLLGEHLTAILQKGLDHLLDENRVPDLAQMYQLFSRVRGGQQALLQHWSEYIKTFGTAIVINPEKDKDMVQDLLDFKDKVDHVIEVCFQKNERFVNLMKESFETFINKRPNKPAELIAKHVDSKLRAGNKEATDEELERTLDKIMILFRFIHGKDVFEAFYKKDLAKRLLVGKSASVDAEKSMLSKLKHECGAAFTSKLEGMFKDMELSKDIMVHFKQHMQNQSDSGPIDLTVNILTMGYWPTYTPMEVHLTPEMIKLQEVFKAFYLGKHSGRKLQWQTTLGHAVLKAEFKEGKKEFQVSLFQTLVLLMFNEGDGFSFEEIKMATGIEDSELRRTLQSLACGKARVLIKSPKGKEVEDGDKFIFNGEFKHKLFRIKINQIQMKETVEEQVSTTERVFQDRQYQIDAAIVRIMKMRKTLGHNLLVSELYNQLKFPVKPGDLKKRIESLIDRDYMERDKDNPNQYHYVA

[2] = molecular target: cycKeGFP in HEK293TCas9 cells (Homo sapiens, UniProt Q16531+Q9NYV4); format: cell-based
[3] = test system: CycK in HEK293TCas9 cells; experiment: Immunoblots of CycK degradation; format: cell-based, human; details: pre-treated with 0.5 μM MLN7243, 1 μM MLN4924 or 10 μM MG132 for 4 hours, then 1 μM CR8 for 2 hours
HEK293TCas9 cells = details: 3 days
[4] = test system: K562Cas9, OVK16Cas9, A564Cas9, ES2Cas9 and MOLM13Cas9 cell lines; experiment: Validation of drug-E3 ligase pairs; format: cell-based; details: flow-based validation, 3 days

Sequence of CDK12-cycK and DDB1 (Q9NYV4 713-1052 K965R): as the sequence (Q9NYV4 713-1052 K965R) above
Sequence of CDK12-cycK and DDB1 (O75909 1-267, further chain): as the sequence (O75909 1-267, further chain) above
Sequence of CDK12-cycK and DDB1 (Q16531 whole entry): as the sequence (Q16531 whole entry) above

SMILES | effect on CDK12-cycK interaction with DDB1 (TR-FRET signal) (CDK12-cycK and DDB1) | cycK ubiquitination in vitro [1] | rescue of CR8-induced cycK degradation [3] | also measured
Nc1ncnc2c1ncn2[C@@H]1O[C@H](COP(=O)(O)OP(=O)(O)OP(=O)(O)O)[C@@H](O)[C@H]1O [ATP] | neither facilitated nor abrogated the interaction |  |  | 
CN1CC[C@H](c2c(O)cc(O)c3c(=O)cc(-c4ccccc4Cl)oc23)[C@H](O)C1 [Flavopiridol] | stimulated the binding of CDK12-cycK to DDB1 | moderate cycK ubiquitination |  | degradation of the cycKeGFP reporter in cells ([2]; HEK293TCas9 cells, 1 μM compound, 2 hours): failed to degrade cycK in cells
CC(C)C[C@@H](C=O)NC(=O)[C@H](CC(C)C)NC(=O)[C@H](CC(C)C)NC(=O)OCc1ccccc1 [MG132] (Cbz-Leu-Leu-Leu-aldehyde) |  |  | rescued | 
NS(=O)(=O)OC[C@@H]1C[C@@H](n2ccc3c(N[C@H]4CCc5ccccc54)ncnc32)C[C@@H]1O [MLN4924] |  |  | rescued | effect on cell viability (HEK293TCas9 cells): only minor effects on cell viability
NS(=O)(=O)OC[C@H]1C[C@@H](Nc2ccnc3cc(-c4cccc(SC(F)(F)F)c4)nn23)[C@H](O)[C@@H]1O [MLN7243] |  |  | rescued | 
CC[C@H](CO)Nc1nc(NCc2ccccc2)c2ncn(C(C)C)c2n1 [Roscovitine] |  | less processive ubiquitination |  | degradation of the cycKeGFP reporter in cells [2]: neither DRF053 nor roscovitine induced degradation
CN(C)C/C=C/C(=O)Nc1ccc(C(=O)N2CCC[C@@H](Nc3ncc(Cl)c(-c4c[nH]c5ccccc45)n3)C2)cc1 [THZ531] | further decreased the TR-FRET signal | diminished cycK ubiquitination in vitro below DMSO control levels |  | 
NS(=O)(=O)c1ccc(S(=O)(=O)Nc2cccc3c(Cl)c[nH]c23)cc1 [indisulam] |  |  |  | effect of sgRNAs targeting DCAF15 on drug-induced toxicity [4]: confer resistance
O=C(NS(=O)(=O)c1ccc(Br)s1)c1ccc(Cl)cc1Cl [tasisulam] |  |  |  | effect of sgRNAs targeting DCAF15 on drug-induced toxicity [4]: confer resistance
